This is an account of results in patent US7351736B2, “Therapeutic compositions (II)” (priority 1998, dated 2008).

A short description of data set [1]: Oral administration of triolide in yoghurt to rats, plasma (R)-3-hydroxybutyrate. In kind it is in vivo, Wistar rats. As to conditions: about 0.4 g triolide in yoghurt. The protocol: The ability of orally administered triolide to raise blood ketone levels was investigated as follows. The day before the experiment commenced, 12 Wistar rats weighing 316+10 g were placed in separate cages. They had no access to food for 15 hours prior to presentation with triolide containing compositions, but water was provided ad libitum.
On the morning of the experiment 0.64 g of triolide was mixed with 5 g Co-op brand Black Cherry yoghurt in separate feeding bowls for 9 of the rats. The remaining 3 rats were given 5 g of the yoghurt without the triolide as controls. The yoghurt containing bowls were placed in the cages and the rats timed while they ate. Two of the three control rats ate all the yoghurt and four of the […] ate approximately half the provided amount. The remaining six rats slept.
Control rats (n=2) were killed at 60 and 180 minutes after ingestion of yoghurt while triolide fed rats were killed at 80, 140, 150 and 155 minutes. Blood samples were taken for assay of (R)-3-hydroxybutyrate. Brains were funnel frozen and later extracted in perchloric acid and extracts neutralised and assayed. Blood levels of (R)-3-hydroxybutyrate were measured using a […] assay of Anal. Biochem (1983) 131, p478-482. […]

Data set [2] is described as follows: Rats fed triolide in 'Hob-Nob' biscuit, ill effects. The conditions noted are these: two rats fed approximately 1.5 g triolide each in 'Hob-Nob' biscuit; after two weeks. The format is in vivo.
For data set [3] the following is noted: human, cited from earlier work.
For data set [4] the following is noted: unesterified state, room temperature; cited from earlier work.
Data set [5] concerns primary hippocampal cultures. In words: Hippocampal microisland cultures with or without amyloid β1-42. As to conditions: for neuronal cell number per microisland (mean): increase from a mean of 30. In kind it is cell-based, Wistar embryos. The protocol:
The serum free medium used from 0 to day 4 contained Neurobasal medium with B27 supplement diluted 50 fold (Life Technology, Gaithersburg, Md.) to which was added: 0.5 mM L-glutamine, 25 μM Na L-glutamate, 100 U/ml penicillin and 100 μg/ml streptomycin. After day 4, DMEM/F12 medium containing 5 μM insulin, 30 nM 1-thyroxine, […] progesterone, 30 nM Na selenite 100 U/ml penicillin and 100 μg/ml streptomycin were used.
The primary hippocampal cultures were removed from Wistar embryos on day 18 and dispersed by gentle agitation in a pipette. The suspension was centrifuged at 1,500×g for 10 min and the supernatant discarded. The pellet was resuspended in new media to a final cell count of […]. Ten μl of this suspension was pipetted into the center of poly D-lysine coated culture wells and the plates incubated at 38° C. for 4 hrs and then 400 μl of fresh Neurobasal media was added. After 2 days of incubation, half of the media was exchanged for fresh media and the incubation continued for 2 more days. After day 4, the medium was changed with DMEM/F12 medium containing 5 μM insulin, 30 nM 1-thyroxine, 20 nM progesterone, 30 nM Na selenite 100 U/ml penicillin and 100 μg/ml streptomycin. […] These media were exchanged 2 days later (day 8) and the cells were fixed on day 10 and stained with anti MAP2 (Boehringer Manheim, Indianapolis Ind.) to visualize neurons and vimentin and GFAP (Boehringer) to visualize glial cells.

Details of data set [6]: species or system rats. As to conditions: rat, in vivo, 30 min. The protocol:
Control rats (n=2) were killed at 60 and 180 minutes after ingestion of yoghurt while triolide fed rats were killed at 80, 140, 150 and 155 minutes. Blood samples were taken for assay of (R)-3-hydroxybutyrate. Brains were funnel frozen and later extracted in perchloric acid and extracts neutralised and assayed. Blood levels of (R)-3-hydroxybutyrate were measured using a […] assay of Anal. Biochem (1983) 131, p478-482. 1.0 ml of a solution made up from 2-amino-2-methyl-1-propanol (100 mM pH 9.9, 0.094 g/10 ml), NAD^+ (30 mM, 0.199 g/10 ml) and EDTA (4 mM, 0.015 g/10 ml) was added to each of a number of cuvettes and 4 μl sample or (R)-3-hydroxybutyrate control.
The ability of orally administered (R)-3-hydroxybutyrate and the linear oligomers of Comparative examples 1 and 2 to raise blood ketone body levels was investigated as follows. Rats were fasted overnight and then gavaged with 100 μl/100 g bodyweight of 4M (R)-3-hydroxybutyrate brought to pH 7.4 using methyl glucamine. Plasma levels of (R)-3-hydroxybutyrate were measured at 0.62 mM after 30 minutes as compared to 3 mM when 9M (R)-3-hydroxybutyrate is used.
This procedure was repeated with 2M solutions of the mixtures (R)-3-hydroxybutyrate oligomers and their acetoacetyl esters described in Comparative Examples 1 and 2.

The conditions of data set [7]: liquid diet, glucose (47% of caloric content) substituted; cited from earlier work.
[8] abbreviates: presence of (R)-3-hydroxybutyrate, whether β1-42 was present or not.

Molecules are shown by their SMILES. Read-outs that look alike come from different tables or passages of the source.

In general, melting point refers to the temperature, or range, at which the solid turns liquid. On to `C[C@@H]1CC(=O)O[C@H](C)CC(=O)O[C@H](C)CC(=O)O1` [triolide, (R,R,R)-4,8,12-trimethyl-1,5,9-trioxadodeca-2,6,10-trione], for which the melting point was in the range of 107 to 108 °C. Further, the “ill effects from ingestion of triolide” value in data set [1] was “no ill effects”. Besides, the ill effects entry in data set [2] is “no ill effects”.

With `C[C@@H](O)CC(=O)[O-].[Na+]` [sodium salts of (R)-3-hydroxybutyrate], the “toxicity on intravenous infusion” value in data set [3] (in vivo, iv) is recorded as “non-toxic”. Also, in data set [3] (intravenous infusion), the decreasing leucine oxidation result is given as “ineffective”; the “glucose free fatty acids and glycerol concentration” value is on record as “capable of decreasing”.

For `CC(=O)CC(=O)O` [acetoacetate], the “half time of spontaneous decarboxylation to acetone” value in data set [4] is recorded as “about 30 days”.

Take `C[C@@H](O)CC(=O)O` [(R)-3-hydroxybutyrate, (R)-3-hydroxybutyric acid]: the “neuronal cell number per microisland (mean)” value was 70 cells per microisland in data set [5] (8 mM (R)-3-hydroxybutyrate added to cultures containing amyloid β1-42) and 70 cells per microisland in data set [5] (8 mM (R)-3-hydroxybutyrate, no amyloid β1-42). The length of axons entry in data set [5] (setting [8]) was “increased”. In data set [5] (setting [8]), the “number of dendritic outgrowths” value is recorded as “increased”. Also, the results for the “plasma level of (R)-3-hydroxybutyrate” value in data set [6] and in data set [6] (pH 7.4) were 3000 µM and 620 µM, respectively.

Turning to `CC(O)CCO` (racemic) [racemic 1,3 butandiol], in data set [7], the “blood (R)-3-hydroxybutyrate concentration” value was 0.98 mM, the blood acetoacetate concentration was 0.33 mM and the “rise of blood ketone concentration” value is recorded as “about 10 fold”.
